For data set [1], the species on record is Rattus norvegicus. The data set can be described thus: animal or person. The data set is classed as functional.
Description: Antiinflammatory activity in rat assessed as inhibition of carrageenan-induced foot edema at 30 mg/kg
Data set [2] is described as follows: Acute toxicity in po dosed mouse. To be noted: in vivo.
For data set [3], the system named is Rattus norvegicus. The data set can be described thus: Antiinflammatory activity in rat assessed as inhibition of carrageenan-induced foot edema. The data set is classed as functional.
Data set [4] relates to Rattus norvegicus. In words: Toxicity in rat assessed as indomethacin-induced intestinal perforation at 256 mg/kg after 3 days. The format is organism-based. Further details: dose 256 mg/kg. To be noted: in vivo, 72 h.
Data set [5] addresses T1, Prostaglandin E synthase (Homo sapiens) (UniProt O14684).
T1 sequence (whole entry): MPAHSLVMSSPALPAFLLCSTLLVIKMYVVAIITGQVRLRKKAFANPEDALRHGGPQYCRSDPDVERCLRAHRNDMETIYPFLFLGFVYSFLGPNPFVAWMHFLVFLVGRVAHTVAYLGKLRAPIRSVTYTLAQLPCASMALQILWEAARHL
Description: Inhibition of prostaglandin synthetase (unknown origin)

Data set [6] is filed under the species Rattus norvegicus. The data set can be described thus: Antiarthritic activity in rat assessed as reduction in adjuvant-induced arthritic pain. The format is functional.
In data set [7] the test system is Rattus norvegicus. In words: Toxicity in rat assessed as indomethacin-induced intestinal perforation at 400 mg/kg after 3 days. The format is organism-based. To be noted: in vivo, 72 h. Further details: dose 400 mg/kg.
The subject of data set [8] is Rattus norvegicus. The data set can be described thus: Toxicity in rat assessed as indomethacin-induced intestinal perforation at 1024 mg/kg after 3 days. The format is organism-based. Set-up: dose 1024 mg/kg. To be noted: in vivo, 72 h.

This is an account of results in ChEMBL document CHEMBL3243978, “2-(Substituted phenyl)oxazolo[4,5-b]pyridines and 2-(substituted phenyl)oxazolo[5,4-b]pyridines as nonacidic antiinflammatory agents” (J Med Chem, 1978).

Converted amounts (≈) assume the structure as drawn.

The term inhibition in vivo denotes the change of the read-out against control, counted positive when it falls. High values mean a strong effect, low ones a weak effect. For orientation: LD50 means the dose expected to kill half of the subjects tested.

In the data set listed under Rattus norvegicus [1], `Clc1cccc(-c2nc3cccnc3o2)c1` gave an inhibition in vivo at 30 mg/kg of 8%.

`Clc1cccc(-c2nc3ncccc3o2)c1` showed an inhibition in vivo at 30 mg/kg in the data set listed under Rattus norvegicus [1] of 32%.

Regarding `Fc1ccc(-c2nc3ncccc3o2)cc1`, the inhibition in vivo at 30 mg/kg in the data set filed under Rattus norvegicus [1] was found to be 28%.

Regarding `c1ccc(-c2nc3cccnc3o2)cc1`, 30 mg/kg produced 55% inhibition in vivo in the data set filed under Rattus norvegicus [1].

`Cc1ccccc1-c1nc2ncccc2o1` displayed an inhibition in vivo at 30 mg/kg in the data set filed under Rattus norvegicus [1] of 0%.

The molecule `Fc1ccc(-c2nc3cccnc3o2)cc1` returned an inhibition in vivo at 30 mg/kg in the data set listed under Rattus norvegicus [1] of 27%.

As to `COc1ccc(C#N)c(-c2nc3ncccc3o2)c1`, at 30 mg/kg the inhibition in vivo in the data set filed under Rattus norvegicus [1] was 3%.

In the case of `Cc1cccc(-c2nc3cccnc3o2)c1`, the inhibition in vivo at 30 mg/kg in the data set listed under Rattus norvegicus [1] is 14%.

As to `Nc1ccccc1-c1nc2cccnc2o1`, in the data set filed under Rattus norvegicus [1], the inhibition in vivo at 30 mg/kg was 13%.

In the data set listed under Rattus norvegicus [1], `FC(F)(F)c1cccc(-c2nc3cccnc3o2)c1` yielded an inhibition in vivo at 30 mg/kg of 7%.

The molecule `CSc1ccccc1-c1nc2ncccc2o1` yielded an inhibition in vivo at 30 mg/kg in the data set listed under Rattus norvegicus [1] of 21%.

In the data set filed under Rattus norvegicus [1], `FC(F)(F)Oc1ccc(-c2nc3ncccc3o2)cc1` registered an inhibition in vivo at 30 mg/kg of 0%.

Turning to `N#Cc1cccc(-c2nc3ncccc3o2)c1`, in the data set listed under Rattus norvegicus [1], testing at 30 mg/kg gave an inhibition in vivo of 21%.

`Cc1ccccc1-c1nc2cccnc2o1` had an inhibition in vivo at 30 mg/kg in the data set filed under Rattus norvegicus [1] of 3%.

On to `Fc1cccc(-c2nc3cccnc3o2)c1`, for which, in the data set filed under Rattus norvegicus [1], the inhibition in vivo at 30 mg/kg was determined as 35%.

As for `N#Cc1ccccc1-c1nc2cccnc2o1`, the inhibition in vivo at 30 mg/kg in the data set filed under Rattus norvegicus [1] stood at 61%. In data set [2], this molecule yielded a median lethal dose (LD50) of 1500 mg/kg. For the same molecule, the ED50 came to 3 mg in the data set listed under Mus musculus, 11 mg/kg in the data set on Rattus norvegicus [3], 16 µg/mL (≈ 72.3 µM) in [5] and 44 mg/kg in the data set filed under Rattus norvegicus [6]. For the same molecule, the Activity entry with Rattus norvegicus [4] is “Non-toxic”.

`CCCCC1C(=O)N(c2ccccc2)N(c2ccccc2)C1=O` [PHENYLBUTAZONE] displayed a median lethal dose (LD50) in [2] of 555 mg/kg. The ED50 stood at 4.3 mg in the data set filed under Mus musculus, 28 mg/kg in the data set with Rattus norvegicus [3], 3 µg/mL (≈ 9.73 µM) in [5] and 14 mg/kg in the data set listed under Rattus norvegicus [6]. Moreover, the Activity result in the data set on Rattus norvegicus [7] is given as “Non-toxic”.

In the data set listed under Rattus norvegicus [1], `COc1ccccc1-c1nc2ncccc2o1` had an inhibition in vivo at 30 mg/kg of 9%.

In the data set filed under Rattus norvegicus [1], `Clc1ccc(-c2nc3cccnc3o2)cc1` showed an inhibition in vivo at 30 mg/kg of 14%.

The molecule `O=[N+]([O-])c1cccc(-c2nc3ncccc3o2)c1` had an inhibition in vivo at 30 mg/kg in the data set listed under Rattus norvegicus [1] of 21%.

Turning to `N#Cc1cccc(F)c1-c1nc2ncccc2o1`, at 30 mg/kg the inhibition in vivo in the data set filed under Rattus norvegicus [1] was 50%.

As for `CC(=O)Oc1ccccc1C(=O)O` [ASPIRIN], the Activity result in the data set with Rattus norvegicus [8] is “Non-toxic”. This molecule also displayed an LD50 in [2] of 1220 mg/kg. Also, the ED50 in the data set listed under Mus musculus stood at 7 mg; in the data set on Rattus norvegicus [3], 89 mg/kg; in data set [5] it was 13.4 µg/mL (≈ 74.4 µM); in the data set filed under Rattus norvegicus [6] it was 67 mg/kg.

For `Clc1cccc(Cl)c1-c1nc2ncccc2o1`, the inhibition in vivo at 30 mg/kg in the data set filed under Rattus norvegicus [1] came out at 14%.

Molecule `O=[N+]([O-])c1ccc(-c2nc3cccnc3o2)cc1` came in with an inhibition in vivo at 30 mg/kg in the data set filed under Rattus norvegicus [1] of 5%.

As for `COc1ccc(-c2nc3ncccc3o2)cc1`, in the data set filed under Rattus norvegicus [1], the inhibition in vivo at 30 mg/kg came out at 14%.

The molecule `Fc1ccc(-c2nc3ncccc3o2)c(F)c1` returned an inhibition in vivo at 30 mg/kg in the data set filed under Rattus norvegicus [1] of 23%.

On to `COc1cccc(-c2nc3ncccc3o2)c1`, for which, in the data set filed under Rattus norvegicus [1], 30 mg/kg produced 14% inhibition in vivo.

`Clc1ccccc1-c1nc2cccnc2o1` yielded an inhibition in vivo at 30 mg/kg in the data set filed under Rattus norvegicus [1] of 50%.

Consider `Cc1ccc(-c2nc3ncccc3o2)cc1`, for which, in the data set listed under Rattus norvegicus [1], the inhibition in vivo at 30 mg/kg amounted to 5%.

With `Clc1ccc(-c2nc3ncccc3o2)cc1`, the inhibition in vivo at 30 mg/kg in the data set listed under Rattus norvegicus [1] was found to be 24%.

In the data set listed under Rattus norvegicus [1], `N#Cc1ccccc1-c1nc2ncccc2o1` showed an inhibition in vivo at 30 mg/kg of 62%. Further, the 50% lethal dose (LD50) in data set [2] was determined as 1220 mg/kg. The ED50 in the data set filed under Mus musculus stood at 2 mg; with Rattus norvegicus [3], 17 mg/kg; in data set [5], 14 µg/mL (≈ 63.3 µM); in the data set filed under Rattus norvegicus [6], 20 mg/kg.

For the molecule `Fc1ccccc1-c1nc2ncccc2o1`, the inhibition in vivo at 30 mg/kg in the data set listed under Rattus norvegicus [1] worked out at 64%. The LD50 in data set [2] was 556 mg/kg. Moreover, the ED50 was determined as 6 mg in the data set filed under Mus musculus, 21 mg/kg with Rattus norvegicus [3], 3 µg/mL (≈ 14 µM) in data set [5] and 23 mg/kg in the data set listed under Rattus norvegicus [6]. In addition, in the data set on Rattus norvegicus [4], the Activity entry is “Non-toxic”.

The molecule `Fc1cccc(F)c1-c1nc2cccnc2o1` yielded an inhibition in vivo at 30 mg/kg in the data set filed under Rattus norvegicus [1] of 50%.

In the data set filed under Rattus norvegicus [1], `COc1ccc(-c2nc3cccnc3o2)cc1` gave an inhibition in vivo at 30 mg/kg of 29%.

With `Brc1ccccc1-c1nc2ncccc2o1`, the inhibition in vivo at 30 mg/kg in the data set listed under Rattus norvegicus [1] turned out to be 24%.

As to `COc1ccc(Br)c(-c2nc3ncccc3o2)c1`, in the data set listed under Rattus norvegicus [1], the inhibition in vivo at 30 mg/kg amounted to 8%.

Molecule `Cc1ccc(-c2nc3cccnc3o2)cc1` gave an inhibition in vivo at 30 mg/kg in the data set filed under Rattus norvegicus [1] of 0%.

In the case of `CC(C)Cc1ccc(C(C)C(=O)O)cc1` (stereo unspecified) [IBUPROFEN], the LD50 in data set [2] was 1370 mg/kg. Besides, the ED50 in the data set filed under Mus musculus stood at 5 mg; with Rattus norvegicus [3], 15 mg/kg; in data set [5], 0.4 µg/mL (≈ 1.94 µM); in the data set filed under Rattus norvegicus [6], 27 mg/kg.

As to `O=[N+]([O-])c1ccccc1-c1nc2cccnc2o1`, the inhibition in vivo at 30 mg/kg in the data set filed under Rattus norvegicus [1] came out at 57%.

For the molecule `N#Cc1cccc(C#N)c1-c1nc2ncccc2o1`, testing at 30 mg/kg in the data set listed under Rattus norvegicus [1] gave an inhibition in vivo of 19%.

`FC(F)(F)c1ccccc1-c1nc2ncccc2o1` displayed an inhibition in vivo at 30 mg/kg in the data set listed under Rattus norvegicus [1] of 19%.

In the data set listed under Rattus norvegicus [1], `c1ccc(-c2nc3ncccc3o2)cc1` registered an inhibition in vivo at 30 mg/kg of 41%.

Turning to `N#Cc1ccc(-c2nc3cccnc3o2)cc1`, in the data set filed under Rattus norvegicus [1], 30 mg/kg produced 17% inhibition in vivo.

As for `Fc1cccc(F)c1-c1nc2ncccc2o1`, in the data set listed under Rattus norvegicus [1], the inhibition in vivo at 30 mg/kg is 66%. In data set [2], this molecule showed an LD50 of 709 mg/kg. Also, the ED50 is 2.4 mg in the data set listed under Mus musculus, 22 mg/kg in the data set on Rattus norvegicus [3], 15 µg/mL (≈ 64.6 µM) in data set [5] and 7.4 mg/kg in the data set filed under Rattus norvegicus [6].

For the molecule `COc1ccc2c(c1)c(CC(=O)O)c(C)n2C(=O)c1ccc(Cl)cc1` [INDOMETHACIN], the median lethal dose (LD50) in data set [2] amounted to 50 mg/kg. The ED50 in the data set filed under Mus musculus turned out to be 2.7 mg; in the data set with Rattus norvegicus [3], 2.7 mg/kg; in data set [5], 0.1 µg/mL (≈ 0.279 µM); in the data set listed under Rattus norvegicus [6], 0.27 mg/kg.

In the case of `Fc1cc(Cl)ccc1-c1nc2ncccc2o1`, the inhibition in vivo at 30 mg/kg in the data set filed under Rattus norvegicus [1] is 19%.

The molecule `Brc1ccccc1-c1nc2cccnc2o1` showed an inhibition in vivo at 30 mg/kg in the data set listed under Rattus norvegicus [1] of 31%.

Turning to `Brc1cccc(-c2nc3ncccc3o2)c1`, in the data set listed under Rattus norvegicus [1], the inhibition in vivo at 30 mg/kg came to 23%.

As to `Clc1ccccc1-c1nc2ncccc2o1`, the inhibition in vivo at 30 mg/kg in the data set filed under Rattus norvegicus [1] amounted to 38%.

In turn, `Fc1ccc(F)c(-c2nc3ncccc3o2)c1` showed an inhibition in vivo at 30 mg/kg in the data set listed under Rattus norvegicus [1] of 18%.

In the case of `COc1cccc(-c2nc3cccnc3o2)c1`, at 30 mg/kg the inhibition in vivo in the data set listed under Rattus norvegicus [1] was 0%.
